# “Also recorded” adds a separate entry of the source. Where two headings read alike, the source gives them in different places.
# Legend:
# E. coli [1] = details: for FICC (fractional inhibitory concentration of the test compound): MICCcheckerboard/MICC; for Outcome: checkerboard with mupirocin; for FICM (MICMcheckerboard/MICM): mupirocin alone 64 µg/mL; for FICI (fractional inhibitory concentration index): with mupirocin, FICC+FICM
# E. faecalis (ATCC 19433) = assay: MIC, E. faecalis ATCC 19433; format: cell-based, Enterococcus faecalis
# [2] = test system: norfloxacin-resistant clinical isolate of E. coli; assay: MIC, microdilution, norfloxacin-resistant clinical isolate of E. coli; format: cell-based, Escherichia coli; details: read-out: MIC E. coli (norfloxacin-resistant strain)
# E. coli (W3110) = assay: MIC, microdilution, E. coli W3110; format: cell-based, Escherichia coli; details: for MIC: Gram-negative strain, average of duplicate experiments, read-out: MIC E. coli (W3110); for concentration (MIC against E. coli W3110): Tab. S11, concentrations represent MIC values
# [3] = test system: M. tuberculosis (MC26020); assay: microbe, parasite or virus in culture; format: cell-based, Mycobacterium tuberculosis; details: for MIC: Mycobacterium tuberculosis, read-out: MIC M. tuberculosis (MC26020)
# [4] = test system: S. aureus (ATCC 43300) MRSA; assay: MIC, microdilution, MRSA ATCC 43300; format: cell-based, Staphylococcus aureus; details: norfloxacin-resistant strain
# S. aureus (CCUG1800T) = assay: MIC, microdilution, S. aureus CCUG1800T; format: cell-based, Staphylococcus aureus; details: read-out: MIC S. aureus (CCUG1800T)
# P. aeruginosa (PAO1) = assay: MIC, microdilution, P. aeruginosa PAO1; format: cell-based, Pseudomonas aeruginosa
# [5] = test system: K. pneumoniae (ATCC 10031); assay: MIC, K. pneumoniae ATCC 10031; format: cell-based, Klebsiella pneumoniae
# E. coli [6] = assay: microbe, parasite or virus in culture; details: Escherichia coli, read-out: MICC (MIC of the test compound alone)
# B. subtilis DSM402 [7] = details: for concentration (MIC against B. subtilis DSM402): Tab. S13, concentrations represent MIC values; for μM (concentration used, 1x MIC): Table 2, cells treated with 1x MIC
# [8] = test system: PonA in B. subtilis TNVS45; assay: PonA localization; details: 1x MIC; 30 min (vancomycin) or 1 h
# B. subtilis DSM402 [9] = assay: Peptidoglycan integrity assay (acetic acid/methanol fixation); details: 1x MIC; 30 min (cell wall inhibitors) or 60 min
# B. subtilis DSM402 [10] = assay: Bacterial cytological profiling (BCP) in B. subtilis DSM402; format: cell-based, Bacillus subtilis; details: for DAPI / phase contrast / FM4-64: 1x MIC, 1 h; for DAPI: DNA condensation; for phase contrast: indicates cell lysis; for FM4-64: membrane stain; for gyrase inhibition / membrane damage: interpretation of BCP in B. subtilis
# [11] = test system: MraY in B. subtilis TNVS284; assay: MraY localization; details: 1x MIC; 30 min (vancomycin) or 1 h
# [12] = test system: cell wall biosynthesis in B. subtilis DSM402; assay: Summary of cell wall synthesis experiments; format: cell-based, Bacillus subtilis
# [13] = test system: MurG in B. subtilis TNVS175; assay: MurG localization; format: cell-based, Bacillus subtilis; details: 1x MIC; 30 min (vancomycin) or 1 h;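 note: normal MurG forms small membrane spots and peptidoglycan inhibition gives large clusters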
# [14] = test system: PbpB in B. subtilis EKB46; assay: PbpB localization; details: 1x MIC; 30 min (vancomycin) or 1 h
# E. coli W3110 = assay: Bacterial cytological profiling (BCP) in E. coli W3110; format: cell-based, Escherichia coli; details: for DAPI / phase contrast / FM4-64: 1x MIC, 1 h; for DAPI: DNA condensation; for phase contrast: indicates cell lysis; for FM4-64: membrane stain; for gyrase inhibition / membrane damage: interpretation of BCP in E. coli
# E. coli BCB472 = assay: GlpT localization (inner membrane) in E. coli BCB472; details: 1x MIC, 1 h; GFP-tagged membrane protein
# MreB in B. subtilis MW10 = assay: MreB mobility assay; format: cell-based, Bacillus subtilis; details: B. subtilis MW10, 1 h of antibiotic exposure
# Method: MreB is an actin homologue that forms filamentous structures along the lateral axis of the cell. It moves along the length of the cells in a spiraling pattern thereby driving lateral peptidoglycan synthesis.[36],[37] MreB mobility is sensitive to inhibition of peptidoglycan synthesis and so far, every cell wall synthesis inhibitor we tested abolished MreB movement (see Figure S70 for examples).
# Expression of msfGFP-MreB was induced with 0.3% xylose. Pictures were taken after 1 h of antibiotic exposure. Two images of the same field of view were recorded 30 s apart and overlaid in ImageJ to visualize MreB mobility. A perfect overlap (yellow) indicates stalled MreB movement, while distinct red and green foci are indicative of MreB mobility. Scale bar 2 μm.
# Fig. S70: MreB motility in B. subtilis MW10 after treatment with different cell wall synthesis inhibitors. Expression of GFP-MreB was induced with 0.3% xylose. Cells were treated with 1x […]
# Two images of the same field of view were recorded 30 sec apart and overlaid in ImageJ to visualize MreB mobility. A perfect overlap (yellow) indicates stalled MreB movement while distinct red and green spots are indicative of MreB mobility. Scale bar 2 µm.
# [15] = Enterococcus faecalis, ATCC19433
# [16] = Klebsiella pneumoniae, ATCC10031
compound,measurement,setting,value
CCn1cc(C(=O)O)c(=O)c2cc(F)c(N3CCN(C(=O)CN4CCCCC4)CC3)cc21 [7a],FICC (fractional inhibitory concentration of the test compound),E. coli [1],0.252
same,Outcome,E. coli [1],additive (>0.5 to ≤4.0 as additive (no interaction))
same,FICM (MICMcheckerboard/MICM),E. coli [1],0.75
same,FICI (fractional inhibitory concentration index),E. coli [1],1.002
same,MIC,E. faecalis (ATCC 19433); [15],4.49 µM
same,MIC,[2]; Escherichia coli,> 1150 µM
same,MIC,E. coli (W3110); Escherichia coli,36 µM
same,MIC,[3],72 µM
same,MIC,[4]; Staphylococcus aureus,576 µM
same,MIC,S. aureus (CCUG1800T); Staphylococcus aureus,8.99 µM
same,MIC,"P. aeruginosa (PAO1); Pseudomonas aeruginosa, PAO1",> 1150 µM
same,MIC,[5]; [16],144 µM
same,MIC,E. coli [6],16 µg/mL
CCn1cc(C(=O)O)c(=O)c2cc(F)c(N3CCN(C(=O)CN4CCOCC4)CC3)cc21 [7b],FICC (fractional inhibitory concentration of the test compound),E. coli [1],0.5
same,Outcome,E. coli [1],additive (>0.5 to ≤4.0 as additive (no interaction))
same,FICM (MICMcheckerboard/MICM),E. coli [1],0.0313
same,FICI (fractional inhibitory concentration index),E. coli [1],0.5313
same,MIC,E. faecalis (ATCC 19433); [15],8.95 µM
same,MIC,[2]; Escherichia coli,143 µM
same,MIC,E. coli (W3110); Escherichia coli,71.7 µM
same,MIC,[3],1.67 µM
same,MIC,[4]; Staphylococcus aureus,287 µM
same,MIC,S. aureus (CCUG1800T); Staphylococcus aureus,4.47 µM
same,MIC,"P. aeruginosa (PAO1); Pseudomonas aeruginosa, PAO1",860 µM
same,MIC,[5]; [16],> 1150 µM
same,MIC,E. coli [6],32 µg/mL
CCn1cc(C(=O)O)c(=O)c2cc(F)c(N3CCN(CN4C(=O)C(=O)c5cc(F)ccc54)CC3)cc21 [20a],concentration (MIC against B. subtilis DSM402),B. subtilis DSM402 [7],16.11 µM
same,"μM (concentration used, 1x MIC)",B. subtilis DSM402 [7],16.11 µM
same,MIC,E. faecalis (ATCC 19433),3.02 µM
same,protein localization PonA,[8],neither compound affected the localization; also recorded: septal
same,MIC,[2]; norfloxacin-resistant clinical isolate,16.11 µM
same,MIC,E. coli (W3110),3.02 µM
same,concentration (MIC against E. coli W3110),E. coli (W3110),3.02 µM
same,MIC M. tuberculosis (MC26020),[3],64.45 µM
same,MIC,[4],>1031.3 µM
same,PG integrity,B. subtilis DSM402 [9],came close to the cutoff value; also recorded: intact
same,DAPI,B. subtilis DSM402 [10],condensed
same,phase contrast,B. subtilis DSM402 [10],dark
same,FM4-64,B. subtilis DSM402 [10],patchy
same,gyrase inhibition,B. subtilis DSM402 [10],yes
same,membrane damage,B. subtilis DSM402 [10],yes
same,protein localization MraY,[11],neither compound affected the localization; also recorded: rough
same,MIC,S. aureus (CCUG1800T),8.05 µM
same,CWB inhibited?,[12],yes ^b
same,MIC,P. aeruginosa (PAO1),17.12 µM
same,protein localization MurG,[13],distinct MurG clusters all over the cells; also recorded: patchy
same,MIC,[5],8.05 µM
same,protein localization PbpB,[14],neither compound affected the localization; also recorded: smooth
same,DAPI,E. coli W3110,condensed
same,phase contrast,E. coli W3110,dark
same,FM4-64,E. coli W3110,smooth
same,gyrase inhibition,E. coli W3110,yes
same,membrane damage,E. coli W3110,no
same,GlpT,E. coli BCB472,smooth
same,MreB mobility,MreB in B. subtilis MW10,much smaller clusters and more clusters per cell; also recorded: mobile with static foci
"CC(C)(N)[C@H](NC(=O)c1ccc(C#CC#C[C@@H]2C[C@H]2CO)cc1)C(=O)NO [ACHN-975, reference compound]",FICM (MICMcheckerboard/MICM),E. coli [1],0.0469
same,FICI (fractional inhibitory concentration index),E. coli [1],0.2969
same,MIC,E. coli [6],0.5 µg/mL
"C/C(=C\C(=O)OCCCCCCCCC(=O)O)C[C@@H]1OC[C@H](C[C@@H]2O[C@H]2[C@@H](C)[C@H](C)O)[C@@H](O)[C@H]1O [Mup, mupirocin]",MIC,E. coli [6],64 µg/mL
"CN[C@H](CC(C)C)C(=O)N[C@H]1C(=O)N[C@@H](CC(N)=O)C(=O)N[C@H]2C(=O)N[C@H]3C(=O)N[C@H](C(=O)N[C@H](C(=O)O)c4cc(O)cc(O)c4-c4cc3ccc4O)[C@H](O)c3ccc(c(Cl)c3)Oc3cc2cc(c3O[C@@H]2O[C@H](CO)[C@@H](O)[C@H](O)[C@H]2O[C@H]2C[C@](C)(N)[C@H](O)[C@H](C)O2)Oc2ccc(cc2Cl)[C@H]1O [Van, vancomycin, reference compound]","μM (concentration used, 1x MIC)",B. subtilis DSM402 [7],0.68 µM
same,protein localization PonA,[8],septal
same,PG integrity,B. subtilis DSM402 [9],compromised
same,protein localization MraY,[11],rough
same,CWB inhibited?,[12],yes
same,protein localization MurG,[13],patchy/dispersed
same,protein localization PbpB,[14],smooth
same,MreB mobility,MreB in B. subtilis MW10,static with foci
CCn1cc(C(=O)O)c(=O)c2cc(F)c(N3CCN(C(=O)CCl)CC3)cc21 [compound 2],concentration (MIC against B. subtilis DSM402),B. subtilis DSM402 [7],1.89 µM
same,"μM (concentration used, 1x MIC)",B. subtilis DSM402 [7],1.89 µM
same,FICC (fractional inhibitory concentration of the test compound),E. coli [1],1.25
same,MICC (MIC of the test compound alone),E. coli [1]; average of at least two replicates,2 µg/mL
same,Outcome,E. coli [1],additive (>0.5 to ≤4.0 as additive (no interaction))
same,MICCcheckerboard (MIC of the test compound in checkerboard assay),E. coli [1]; combined with mupirocin,2.5 µg/mL
same,FICM (MICMcheckerboard/MICM),E. coli [1],0.2656
same,MICMcheckerboard (MIC of mupirocin in checkerboard assay),E. coli [1]; mupirocin combined with the compound of the line,7.8 µg/mL
same,FICI (fractional inhibitory concentration index),E. coli [1],1.5156
same,MIC,E. faecalis (ATCC 19433),6.31 µM
same,MIC,[2],>1293.54 µM
same,MIC,E. coli (W3110),6.31 µM
same,concentration (MIC against E. coli W3110),E. coli (W3110),6.31 µM
same,MIC M. tuberculosis (MC26020),[3],>1293.54 µM
same,MIC,[4],161.69 µM
same,PG integrity,B. subtilis DSM402 [9],came close to the cutoff value; also recorded: intact
same,DAPI,B. subtilis DSM402 [10],condensed
same,phase contrast,B. subtilis DSM402 [10],dark
same,FM4-64,B. subtilis DSM402 [10],smooth
same,gyrase inhibition,B. subtilis DSM402 [10],yes
same,membrane damage,B. subtilis DSM402 [10],no
same,MIC,S. aureus (CCUG1800T),2.52 µM
same,CWB inhibited?,[12],no
same,MIC,P. aeruginosa (PAO1),192 µM
same,MIC,[5],121.27 µM
same,DAPI,E. coli W3110,condensed
same,phase contrast,E. coli W3110,dark
same,FM4-64,E. coli W3110,smooth
same,gyrase inhibition,E. coli W3110,yes
same,membrane damage,E. coli W3110,no
same,GlpT,E. coli BCB472,smooth
